pKi: −log10 of the molar value.
Assays:
[1] = biological target: T1, Carboxypeptidase B (Helicoverpa zea, UniProt Q3T905); test: Inhibition of corn earworm recombinant carboxypeptidase B expressed in Pichia pastoris system; settings: for pKi: read-out: Ki
T1 sequence (Q3T905 whole entry): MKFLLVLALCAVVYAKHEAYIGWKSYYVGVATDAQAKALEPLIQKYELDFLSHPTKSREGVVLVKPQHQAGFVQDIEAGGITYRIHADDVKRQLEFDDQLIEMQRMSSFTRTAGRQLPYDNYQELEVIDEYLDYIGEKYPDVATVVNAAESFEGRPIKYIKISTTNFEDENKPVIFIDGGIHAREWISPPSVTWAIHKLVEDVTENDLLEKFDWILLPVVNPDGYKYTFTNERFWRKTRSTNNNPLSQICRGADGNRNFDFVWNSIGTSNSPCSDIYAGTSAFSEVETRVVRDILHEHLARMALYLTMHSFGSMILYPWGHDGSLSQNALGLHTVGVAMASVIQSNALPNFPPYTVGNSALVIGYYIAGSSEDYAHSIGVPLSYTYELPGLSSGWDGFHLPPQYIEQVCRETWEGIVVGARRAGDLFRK

[2] = biological target: T2, Carboxypeptidase A1 (Bos taurus, UniProt P00730); test: Inhibition of bovine carboxypeptidase A1
T2 sequence (P00730 whole entry): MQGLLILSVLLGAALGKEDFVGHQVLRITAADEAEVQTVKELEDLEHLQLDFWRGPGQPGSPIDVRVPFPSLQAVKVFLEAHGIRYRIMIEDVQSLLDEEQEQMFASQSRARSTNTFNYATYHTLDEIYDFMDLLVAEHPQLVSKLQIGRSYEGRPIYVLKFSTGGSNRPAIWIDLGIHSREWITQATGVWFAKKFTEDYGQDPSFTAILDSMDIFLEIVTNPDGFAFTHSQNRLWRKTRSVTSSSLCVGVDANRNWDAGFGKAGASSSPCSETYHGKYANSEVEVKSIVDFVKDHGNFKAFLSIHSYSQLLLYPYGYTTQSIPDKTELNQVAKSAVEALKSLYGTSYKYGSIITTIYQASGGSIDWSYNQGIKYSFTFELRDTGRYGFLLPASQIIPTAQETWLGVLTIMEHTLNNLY

[3] = biological target: T3, Carboxypeptidase B (Homo sapiens, UniProt P15086); test: Inhibition of human recombinant carboxypeptidase B expressed in Pichia pastoris system
T3 sequence (P15086 whole entry): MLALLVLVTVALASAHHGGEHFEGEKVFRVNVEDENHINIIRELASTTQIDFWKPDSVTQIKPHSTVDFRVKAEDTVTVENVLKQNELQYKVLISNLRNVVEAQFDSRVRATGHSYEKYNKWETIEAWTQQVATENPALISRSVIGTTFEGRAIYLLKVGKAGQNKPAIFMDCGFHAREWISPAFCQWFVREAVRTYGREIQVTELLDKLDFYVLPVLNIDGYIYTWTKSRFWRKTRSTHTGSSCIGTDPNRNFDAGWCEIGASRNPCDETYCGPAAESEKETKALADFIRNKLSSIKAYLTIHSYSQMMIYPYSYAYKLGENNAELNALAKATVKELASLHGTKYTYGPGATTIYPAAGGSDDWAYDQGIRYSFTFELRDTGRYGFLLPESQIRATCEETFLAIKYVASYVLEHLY

[4] = Selectivity ratio, Ki for bovine carboxypeptidase A1 to Ki for human recombinant carboxypeptidase B

| SMILES | pKi [1] | pKi [2] | pKi [3] | Ratio Ki [4] | Ki [1] |
| --- | --- | --- | --- | --- | --- |
| Cc1cc(S(=O)(=O)N(Cc2ccco2)Cc2ccccc2Cl)ccc1-n1cnnn1 | 4.90 | 3.80 | 4.78 | – | – |
| O=C(C1CC1)N(Cc1ccccc1)c1nc(-c2ccccc2)cs1 | 5.92 | 3.10 | 5.35 | 160 | – |
| O=C(CSc1nnc(-c2ccccc2F)o1)OCc1ccccc1 | 4.48 | 4.49 | 4.17 | – | – |
| Cc1cccc(CCc2nnc(SCC(=O)O)n2Cc2ccccc2)c1 | 4.24 | 3.66 | 3.71 | – | – |
| O=C(O)CC(Cc1ccccc1)C(=O)O (racemic) | 4.92 | 6.30 | 5.00 | – | – |
| O=S(=O)(NCc1ccccc1)c1ccc(S(=O)(=O)N(Cc2cccs2)CC2CCCO2)cc1 (configuration not stated) | – | 4.71 | 4.64 | – | Not Active |
| Cc1ccc(S(=O)(=O)N2CCN(C(=O)CNCc3ccncc3)CC2)cc1 | 4.74 | 3.60 | 3.44 | – | – |
| O=C(O)c1cccc(-n2nnnc2SCC(=O)c2ccccc2F)c1 | 4.27 | 3.26 | 4.47 | – | – |
| COc1ccc(C(=O)Cn2nnc(-c3ccccc3NC(=O)C3CC3)n2)cc1 | 4.51 | 4.38 | 3.53 | – | – |
| Cc1ccc(C(=O)CSc2nnc(COc3ccc(Cl)cc3)o2)cc1 | 4.92 | 4.44 | 4.93 | – | – |
| COc1cccc(CN(Cc2cccnc2)S(=O)(=O)c2ccc(-n3cnnn3)c(C)c2)c1 | 4.55 | 3.83 | 4.62 | – | – |
| Cc1ccccc1CCNS(=O)(=O)c1ccc(-n2cnnn2)c(C)c1 | 4.42 | 3.86 | 4.59 | – | – |
| COC(=O)CSc1nnc(-c2ccccc2O)n1Cc1ccccc1 | 4.38 | 3.80 | 5.31 | 30 | – |
| O=C(O)c1ccccc1C(=O)N1CCC(C(=O)c2ccccc2)CC1 | 4.71 | 3.49 | 4.68 | – | – |
| COc1ccccc1Cn1c(SCC(=O)N2CCC(C)CC2)nnc1-c1ccncc1 | 4.52 | 3.42 | 4.68 | – | – |
| Cc1ccccc1-c1nnc(SCC(=O)c2ccccc2F)o1 | 4.40 | 4.41 | 4.83 | – | – |
| O=C(CSc1nnc(-c2ccc(O)cc2)n1Cc1ccco1)c1cccs1 | – | 4.13 | 5.04 | – | Not Active |
| CCOC(=O)C(Sc1nnc(COc2ccc(CC)cc2)n1CC)C(C)C (configuration not stated) | 4.92 | 4.66 | 4.97 | – | – |
| O=S(=O)(NCc1cccs1)c1ccc(-c2nnc(SCc3ccccc3Cl)o2)cc1 | 5.85 | 4.17 | 4.40 | – | – |
| COc1ccccc1-c1nnc(SCC(=O)OC(C)C)n1Cc1ccccc1 | 4.44 | 3.80 | 5.13 | – | – |
| COc1cccc(CSc2nnc(Cc3csc(Nc4cccc(Cl)c4)n3)o2)c1 | 5.44 | 4.65 | 5.92 | – | – |
| O=C(CSc1nnc(-c2ccco2)n1Cc1ccccc1)c1ccc(F)cc1 | – | 3.63 | 4.13 | – | Not Active |
| O=C(CSc1nnc(-c2ccccc2O)o1)c1ccc(Cl)cc1 | 6.00 | 5.68 | 5.12 | 20 | – |
| N=C(N)NCCSC(CC(=O)O)C(=O)O (racemic) | – | – | 5.96 | – | – |
| CCCN(C(=O)Cc1ccccc1OC)c1nnc(-c2ccc(OC)cc2)s1 | 4.71 | 3.89 | 4.60 | – | – |
| Cc1ccc(C)c2c1[nH]c1nc(SCC(=O)c3ccc(F)cc3)nnc12 | 5.05 | 4.06 | 4.82 | – | – |
| NC(=O)CSc1nnc(-c2cccs2)n1Cc1ccccc1 | 4.57 | 3.81 | 4.94 | – | – |

From ChEMBL document CHEMBL1153015, “A new type of five-membered heterocyclic inhibitors of basic metallocarboxypeptidases” (Eur J Med Chem, 2009)
